Results: patent US20150038707A1, “PROCESS FOR MAKING CGRP RECEPTOR ANTAGONISTS” (Merck Sharp & Dohme Corp., priority 2012, published 2015)

What was measured:
[1] = tested on: Ae. aegypti Houston strain (pyrethroid susceptible); test: Toxicity assay on treated netting (Example 7), Houston strain; format: in vivo
Experimental: (§1) Several compounds were tested to determine their toxic effect on Ae. aegypti mosquitoes. Three mosquito strains were tested—Houston which is pyrethroid susceptible, That which is pyrethroid tolerant and Isla Mujer which is metabolically pyrethroid resistant.
(§2) The toxicity assay involved a single chamber to which treated netting was added. Twenty (20) mosquitoes were transferred to the chamber. After 1 hour, the number of knocked down mosquitoes was recorded and all mosquitoes were transferred to holding cartoons. The mosquitoes were given a 10% sucrose-soaked cotton ball and returned to the insectary. Mortaility was measured after 24 hours. A control assay using acetone-treated netting was used. Six replicates were performed at each treatment concentration.

[2] = tested on: female Aedes aegypti (Thailand strain) mosquitoes; test: Contact irritancy and spatial repellency screening (Example 4); format: in vivo; conditions: Dosage 25 nmol/cm^2; mapped with 3000 other compounds
Experimental: (§3) Four compounds of formula (I) were tested for contact irritancy (i.e., movement away from the source after physical contact) at low doses on female Aedes aegypti (Thailand strain) mosquitoes. The contact irritant response was determined by use of the contact irritant assay disclosed by Grieco et al. in “A New Classification System for the Actions of IRS Chemicals Traditionally Used for Malaria Control,” Plos One, Issue 8 (2007) (available at www.plosone.org). The assay used was a cylindrical assembly that included a metal treatment end to which 10 mosquitoes were introduced and a clear receiving chamber. The treatment end included a netting strip (nylon organdy) that was treated with the insecticide of interest at the relevant dose. A butterfly valve separated the treatment end from the remainder of the assembly.
(§4) The four compounds of formula I described in Example 2 were tested for spatial repellency (directed movement away from the chemical source without the insect making physical contact with the treated surface) at low doses on female Aedes aegypti (Thailand strain) mosquitoes. The spatial repellency response was determined by use of the spatial repellency assay disclosed by Grieco et al. in “A New Classification System for the Actions of IRS Chemicals Traditionally Used for Malaria Control” in Plos One, Issue 8 (2007) (available at www.plosone.org) which is incorporated herein by reference for all relevant and consistent purposes. The assay used was a cylindrical assembly that included a treatment chamber at one end and a control chamber at the other end. The treatment chamber included a netting strip (nylon organdy) that was treated with the insecticide of interest at the relevant dose. The treatment chamber and control chamber were connected by a clear cylinder and were separated from the clear cylinder by butterfly valves. Twenty (20) mosquitoes were introduced into the clear central chamber and the butterfly valves were opened after 30 seconds. After 10 minutes, the valves were closed and the number of mosquitoes in each chamber was counted.
Dosage was 25 nmol/cm^2. Several known compounds were also mapped for comparison—alphacypermethrin, cypermethrin, propoxur, bendiocarb, permethrin, SS220, DDT, deet and chlorpyrifos.

[3] = tested on: Ae. aegypti Thai strain (pyrethroid tolerant); test: Toxicity assay on treated netting (Example 7), Thai strain; format: in vivo
Experimental: as §1, §2

[4] = tested on: Ae. aegypti Isla mujeres strain (metabolically pyrethroid resistant); test: Toxicity assay on treated netting (Example 7), Isla mujeres strain; format: in vivo; conditions: for toxicity to resistant populations compared with standard compounds: summary of Table 2
Experimental: as §1, §2

[5] = tested on: female Aedes aegypti (Thailand strain) mosquitoes; test: Contact irritancy assay on mosquitoes (Example 2); format: in vivo; conditions: netting treated at 0.0025-2.5 nmol/cm^2; 10 minutes
Experimental: as §3
Each composition was applied to the netting strip at a varied dose via a 1.5 ml acetone solution. Four (4) treatment concentrations were used—0.0025 nmol/cm^2, 0.025 nmol/cm^2, 0.25 nmol/cm^2 and 2.5 nmol/cm^2. Netting was allowed to dry for 15 minutes prior to placement in the cylinder. Control assays were performed with netting treated with acetone only.
For each run, 10 mosquitoes were transferred into the treatment end of the assembly and, after 30 seconds, the butterfly valve was opened. The valve was closed after 10 minutes and the number of mosquitoes in the clear end (i.e., the number of escaped mosquitoes) was tested.

KDR Resisant An. Gambiae = test: Bottle toxicity assay (Example 8), knockdown resistant mosquitoes; format: in vivo, Anopheles gambiae; conditions: for effectiveness against knockdown resistant strains: summary of Table 3
Experimental: Several compounds were tested to determine their toxic effect on knockdown resistant Anopheles gambiae mosquitoes and susceptible mosquitoes. Acetone and different amounts of pesticides were added to 250 ml bottles. In one bottle, only acetone was added as a control. The bottles were rotated in all directions while uncapped until all acetone was evaporated and the insecticide was coated onto the inside surfaces of the bottle. A number of knockdown resistant Anopheles gambiae mosquitoes were added to the bottle. The number of dead mosquitoes was recorded at 1 hour and 24 hours.

[6] = tested on: Ae. Aegypti strains Houston, That and Isla Mujer; test: Spatial repellency on metabolically resistant mosquitoes (Example 6); format: in vivo
Experimental: as §4
The spatial repellency protocol of Example 3 was used to determine spatial repellency against mosquitoes (Ae. Aegypti) that had acquired metabolic resistance against pyrethroids. DDT and transfluthrin were also tested. Three mosquito strains were tested—Houston which is pyrethroid susceptible, That which is pyrethroid tolerant and Isla Mujer which is metabolically pyrethroid resistant.

[7] = Dose 0.025 nm/cm^2, Time 1 hour
[8] = Dose 0.025 nm/cm^2, Time 24 hours
[9] = Dose 0.0725 nm/cm^2, Time 1 hour
[10] = Dose 0.0725 nm/cm^2, Time 24 hours
[11] = Dose 0.125 nm/cm^2, Time 1 hour
[12] = Dose 0.125 nm/cm^2, Time 24 hours
[13] = Dose 0.25 nm/cm^2, Time 24 hours
[14] = Dose 2.5 nm/cm^2, Time 24 hours
[15] = Dose 0.025 μg/bottle, Strain Tested F122, Time 1 hour
[16] = Dose 0.025 μg/bottle, Strain Tested F122, Time 24 hours
[17] = Dose 0.025 μg/bottle, Strain Tested F123, Time 1 hour
[18] = Dose 0.025 μg/bottle, Strain Tested F123, Time 24 hours
[19] = Dose 0.25 μg/bottle, Strain Tested F122, Time 1 hour
[20] = Dose 0.25 μg/bottle, Strain Tested F122, Time 24 hours
[21] = Dose 0.25 μg/bottle, Strain Tested F123, Time 1 hour
[22] = Dose 0.25 μg/bottle, Strain Tested F123, Time 24 hours
[23] = Dose 2.5 μg/bottle, Strain Tested F122, Time 1 hour
[24] = Dose 2.5 μg/bottle, Strain Tested F122, Time 24 hours
[25] = Dose 2.5 μg/bottle, Strain Tested F123, Time 1 hour
[26] = Dose 2.5 μg/bottle, Strain Tested F123, Time 24 hours

CC1(C)C(C=C(Cl)Cl)C1C(=O)OCc1ccc(F)c(C(F)(F)F)c1F (stereo not shown) [Compound 1406]
Houston (% dead (SE)) [1, 7]: 100%
Houston (% dead (SE)) [1, 8]: 100%
Houston (% dead (SE)) [1, 9]: 100%
Houston (% dead (SE)) [1, 10]: 100%
Houston (% dead (SE)) [1, 11]: 100%
Houston (% dead (SE)) [1, 12]: 100%
Houston (% dead (SE)) ([1]; Dose 0.25 nm/cm^2, Time 1 hour): 100%
Houston (% dead (SE)) [1, 13]: 100%
Houston (% dead (SE)) ([1]; Dose 2.5 nm/cm^2, Time 1 hour): 100%
Houston (% dead (SE)) [1, 14]: 100%
contact irritancy and spatial repellency relative to screened compounds (FIG. 3) [2]: superior contact irritancy and spatial repellency relative to most screened compounds
Thai (% dead (SE)) [3, 7]: 100%
Thai (% dead (SE)) [3, 8]: 98.3%
Thai (% dead (SE)) [3, 9]: 100%
Thai (% dead (SE)) [3, 10]: 100%
Thai (% dead (SE)) ([3]; Dose 0.25 nm/cm^2, Time 1 hour): 96.6%
Thai (% dead (SE)) [3, 13]: 100%
Thai (% dead (SE)) ([3]; Dose 2.5 nm/cm^2, Time 1 hour): 100%
Thai (% dead (SE)) [3, 14]: 100%
Isla mujeres (% dead (SE)) ([4]; Dose 0.00725 nm/cm^2, Time 1 hour): 0%
Isla mujeres (% dead (SE)) ([4]; Dose 0.00725 nm/cm^2, Time 24 hours): 7.77%
Isla mujeres (% dead (SE)) [4, 7]: 100%
Isla mujeres (% dead (SE)) [4, 8]: 42.77%
Isla mujeres (% dead (SE)) [4, 9]: 96.29%
Isla mujeres (% dead (SE)) [4, 10]: 25.37%
Isla mujeres (% dead (SE)) [4, 11]: 100%
Isla mujeres (% dead (SE)) [4, 12]: 100%
Isla mujeres (% dead (SE)) ([4]; Dose 0.25 nm/cm^2, Time 1 hour): 100%
Isla mujeres (% dead (SE)) [4, 13]: 100%
Isla mujeres (% dead (SE)) ([4]; Dose 2.5 nm/cm^2, Time 1 hour): 100%
Isla mujeres (% dead (SE)) [4, 14]: 100%
toxicity to resistant populations compared with standard compounds [4]: more toxic to resistant populations than permethrin, matfluthrin and transfluthrin
contact irritancy (FIG. 1) [5]: showed contact irritancy at relatively low doses
KDR Resisant An. Gambiae (% dead (SE)) (KDR Resisant An. Gambiae; [15]): 100%
KDR Resisant An. Gambiae (% dead (SE)) (KDR Resisant An. Gambiae; [16]): 100%
KDR Resisant An. Gambiae (% dead (SE)) (KDR Resisant An. Gambiae; [17]): 100%
KDR Resisant An. Gambiae (% dead (SE)) (KDR Resisant An. Gambiae; [18]): 100%
KDR Resisant An. Gambiae (% dead (SE)) (KDR Resisant An. Gambiae; [19]): 100%
KDR Resisant An. Gambiae (% dead (SE)) (KDR Resisant An. Gambiae; [20]): 100%
KDR Resisant An. Gambiae (% dead (SE)) (KDR Resisant An. Gambiae; [21]): 100%
KDR Resisant An. Gambiae (% dead (SE)) (KDR Resisant An. Gambiae; [22]): 100%
KDR Resisant An. Gambiae (% dead (SE)) (KDR Resisant An. Gambiae; [23]): 100%
KDR Resisant An. Gambiae (% dead (SE)) (KDR Resisant An. Gambiae; [24]): 100%
KDR Resisant An. Gambiae (% dead (SE)) (KDR Resisant An. Gambiae; [25]): 100%
KDR Resisant An. Gambiae (% dead (SE)) (KDR Resisant An. Gambiae; [26]): 100%
effectiveness against knockdown resistant strains (KDR Resisant An. Gambiae): effective against knockdown resistant strains
spatial repellency, all strains (FIG. 5) [6]: spatial repellants for all strains

CC1(C)C(C=C(Cl)C(F)(F)F)C1C(=O)OCc1ccc(F)c(C(F)(F)F)c1F (stereo not shown) [Compound 1405]
Houston (% dead (SE)) [1, 7]: 100%
Houston (% dead (SE)) [1, 8]: 100%
Houston (% dead (SE)) [1, 9]: 100%
Houston (% dead (SE)) [1, 10]: 100%
Houston (% dead (SE)) [1, 11]: 100%
Houston (% dead (SE)) [1, 12]: 100%
Houston (% dead (SE)) ([1]; Dose 0.25 nm/cm^2, Time 1 hour): 100%
Houston (% dead (SE)) [1, 13]: 100%
Houston (% dead (SE)) ([1]; Dose 2.5 nm/cm^2, Time 1 hour): 100%
Houston (% dead (SE)) [1, 14]: 100%
contact irritancy and spatial repellency relative to screened compounds (FIG. 3) [2]: superior contact irritancy and spatial repellency relative to most screened compounds
Thai (% dead (SE)) [3, 7]: 83.3%
Thai (% dead (SE)) [3, 8]: 15%
Thai (% dead (SE)) [3, 9]: 100%
Thai (% dead (SE)) [3, 10]: 100%
Thai (% dead (SE)) [3, 11]: 100%
Thai (% dead (SE)) [3, 12]: 100%
Thai (% dead (SE)) ([3]; Dose 2.5 nm/cm^2, Time 1 hour): 100%
Thai (% dead (SE)) [3, 14]: 100%
Isla mujeres (% dead (SE)) [4, 7]: 100%
Isla mujeres (% dead (SE)) [4, 8]: 11.84%
Isla mujeres (% dead (SE)) [4, 9]: 100%
Isla mujeres (% dead (SE)) [4, 10]: 9.69%
Isla mujeres (% dead (SE)) [4, 11]: 100%
Isla mujeres (% dead (SE)) [4, 12]: 9.89%
Isla mujeres (% dead (SE)) ([4]; Dose 0.25 nm/cm^2, Time 1 hour): 100%
Isla mujeres (% dead (SE)) [4, 13]: 100%
Isla mujeres (% dead (SE)) ([4]; Dose 2.5 nm/cm^2, Time 1 hour): 100%
Isla mujeres (% dead (SE)) [4, 14]: 100%
toxicity to resistant populations compared with standard compounds [4]: more toxic to resistant populations than permethrin, matfluthrin and transfluthrin
contact irritancy (FIG. 1) [5]: showed contact irritancy at relatively low doses
KDR Resisant An. Gambiae (% dead (SE)) (KDR Resisant An. Gambiae; Dose 0.00025 μg/bottle, Strain Tested F123, Time 1 hour): 55%
KDR Resisant An. Gambiae (% dead (SE)) (KDR Resisant An. Gambiae; Dose 0.00025 μg/bottle, Strain Tested F123, Time 24 hours): 37%
KDR Resisant An. Gambiae (% dead (SE)) (KDR Resisant An. Gambiae; Dose 0.0025 μg/bottle, Strain Tested F122, Time 1 hour): 100%
KDR Resisant An. Gambiae (% dead (SE)) (KDR Resisant An. Gambiae; Dose 0.0025 μg/bottle, Strain Tested F122, Time 24 hours): 66%
KDR Resisant An. Gambiae (% dead (SE)) (KDR Resisant An. Gambiae; Dose 0.0025 μg/bottle, Strain Tested F123, Time 1 hour): 92%
KDR Resisant An. Gambiae (% dead (SE)) (KDR Resisant An. Gambiae; Dose 0.0025 μg/bottle, Strain Tested F123, Time 24 hours): 100%
KDR Resisant An. Gambiae (% dead (SE)) (KDR Resisant An. Gambiae; [15]): 100%
KDR Resisant An. Gambiae (% dead (SE)) (KDR Resisant An. Gambiae; [16]): 100%
KDR Resisant An. Gambiae (% dead (SE)) (KDR Resisant An. Gambiae; [17]): 100%
KDR Resisant An. Gambiae (% dead (SE)) (KDR Resisant An. Gambiae; [18]): 100%
KDR Resisant An. Gambiae (% dead (SE)) (KDR Resisant An. Gambiae; [19]): 100%
KDR Resisant An. Gambiae (% dead (SE)) (KDR Resisant An. Gambiae; [20]): 100%
KDR Resisant An. Gambiae (% dead (SE)) (KDR Resisant An. Gambiae; [21]): 100%
KDR Resisant An. Gambiae (% dead (SE)) (KDR Resisant An. Gambiae; [22]): 100%
KDR Resisant An. Gambiae (% dead (SE)) (KDR Resisant An. Gambiae; [23]): 100%
KDR Resisant An. Gambiae (% dead (SE)) (KDR Resisant An. Gambiae; [24]): 100%
KDR Resisant An. Gambiae (% dead (SE)) (KDR Resisant An. Gambiae; [25]): 100%
KDR Resisant An. Gambiae (% dead (SE)) (KDR Resisant An. Gambiae; [26]): 100%
KDR Resisant An. Gambiae (% dead (SE)) (KDR Resisant An. Gambiae; Dose 25 μg/bottle, Strain Tested F123, Time 1 hour): 100%
KDR Resisant An. Gambiae (% dead (SE)) (KDR Resisant An. Gambiae; Dose 25 μg/bottle, Strain Tested F123, Time 24 hours): 100%
effectiveness against knockdown resistant strains (KDR Resisant An. Gambiae): effective against knockdown resistant strains
spatial repellency, all strains (FIG. 5) [6]: spatial repellants for all strains
